The subject of data set [1] is human SMAD7 mRNA. The data set can be described thus: Dose-dependent inhibition of human SMAD7 mRNA expression in Hep3B cells (Example 3, Study 1 and 2). To be noted: electroporation; for % inhibition of SMAD7 mRNA expression: approximately 16 hours; for IC50: Study 2 (740-20000 nM). It counts as cell-based. As for the experimental part:
The antisense oligonucleotides were tested in a series of experiments that had similar culture conditions as described below.
(§1) Cells were plated at a density of 20,000 cells per well and transfected using electroporation with 0.31 μM, 1.25 μM, 5.00 μM, or 20.00 μM concentrations of antisense oligonucleotide, as specified in the Tables below. ION 483663 was included in the assays for comparison. After a treatment period of approximately 16 hours, RNA was isolated from the cells and SMAD7 mRNA levels were measured by quantitative real-time PCR. Primer probe set RTS5062 was used to measure human SMAD7 mRNA levels. SMAD7 mRNA levels were adjusted according to total RNA content, as measured by RIBOGREEN®. Results are presented as percent inhibition of SMAD7 mRNA expression, relative to untreated control cells.
The half maximal inhibitory concentration (IC50) of each oligonucleotide is also presented.
as §1, with “0.74” for “0.31”, “2.22” for “1.25”, “6.67” for “5.00”, “below.” for “below. ION 483663 was included in the assays for comparison.”

Data set [2] concerns human SMAD7 mRNA. The data set can be described thus: Antisense inhibition of human SMAD7 mRNA expression in Hep3B cells by 3-10-3 cEt gapmers, 10,000 nM, electroporation (Example 2). The class given is cell-based. As to conditions: approximately 24 hours. The procedure, abridged: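 qRT-PCR (RTS5062) of SMAD7 mRNA, normalised to RIBOGREEN total RNA, gave percent inhibition relative to untreated controls. Hep3B cells at 20,000 per well received 10,000 nM oligonucleotide by electroporation, with ~24 h treatment.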

The mark [3] stands for this setting: 740 nM, Study 2, relative to untreated control cells.
[4] abbreviates: SMAD7 mRNA, Hep3B cells, 10,000 nM antisense oligonucleotide, electroporation, primer probe set RTS5062, relative to untreated control cells.
Where [5] appears, read: Hep3B cells, electroporation with 10,000 nM antisense oligonucleotide, primer probe set RTS5062, relative to untreated control cells.

Strand notation (5' to 3'): a small letter for the sugar, then the base; units joined by * are phosphorothioate-linked, units joined directly phosphodiester-linked; [ ] holds rarer units or linkages, { } end groups; capitals alone tell only the bases. k = constrained ethyl (cEt); [5mC] = 5-methylcytosine; d = 2'-deoxy (DNA) Bounds are passed on as bounds.

In the case of “790616 (k[5mC]*kT*kA*dA*dA*dT*dT*dT*d[5mC]*d[5mC]*dA*dA*dT*kG*kA*kG; antisense) [compound 790616]”, the “% inhibition of SMAD7 mRNA expression” value in the data set with human SMAD7 mRNA [1] (setting [3]) amounted to 0%; in the data set on human SMAD7 mRNA [1] (2220 nM, Study 2), 8%; with human SMAD7 mRNA [1] (6670.0 nM, Study 2), 26%; in the data set with human SMAD7 mRNA [1] (20000.0 nM, Study 2), 65%. Moreover, inhibition in the data set on human SMAD7 mRNA [1] was half-maximal at 13 µM (IC50). For the same substance, the “% Inhibition” value with human SMAD7 mRNA [2] (setting [4]) worked out at 66%.
Consider “790636 (kA*kG*k[5mC]*dA*dT*d[5mC]*dT*dG*dG*dA*d[5mC]*dA*dG*kT*k[5mC]*kA; antisense) [compound 790636]”, for which the “% inhibition of SMAD7 mRNA expression” value is listed as 89% with human SMAD7 mRNA [1] (setting [3]); 93% in the data set with human SMAD7 mRNA [1] (2220 nM, Study 2); 95% with human SMAD7 mRNA [1] (6670.0 nM, Study 2); 99% in the data set with human SMAD7 mRNA [1] (20000.0 nM, Study 2); 95% with human SMAD7 mRNA [2] (Hep3B cells, electroporation, 10,000 nM, 3-10-3 cEt gapmers targeting SEQ ID NO: 3 and 4). The substance also gave an IC50 in the data set on human SMAD7 mRNA [1] of under 0.7 µM.
“790666 (kT*kA*kA*dT*dT*dT*dA*dT*dG*dA*d[5mC]*dA*dA*k[5mC]*kG*k[5mC]; antisense) [compound 790666]”: the “% inhibition of SMAD7 mRNA expression” value in the data set on human SMAD7 mRNA [1] (setting [3]) was determined as 13%; with human SMAD7 mRNA [1] (2220 nM, Study 2), 49%; with human SMAD7 mRNA [1] (6670.0 nM, Study 2), 54%; in the data set on human SMAD7 mRNA [1] (20000.0 nM, Study 2), 74%. In the data set on human SMAD7 mRNA [1], this substance displayed an IC50 of 4 µM. For the same substance, in the data set with human SMAD7 mRNA [2] (setting [4]), the “% Inhibition” value was 72%.
With “790732 (kG*k[5mC]*kT*dT*dA*dT*dT*dT*d[5mC]*dA*dT*dG*dT*kG*kG*kT; antisense) [compound 790732]”, the “% inhibition of SMAD7 mRNA expression” value in the data set with human SMAD7 mRNA [1] (setting [3]) is 70%; with human SMAD7 mRNA [1] (2220 nM, Study 2), 78%; in the data set with human SMAD7 mRNA [1] (6670.0 nM, Study 2) it was 88%; with human SMAD7 mRNA [1] (20000.0 nM, Study 2) it was 93%. The substance further registered an IC50 in the data set on human SMAD7 mRNA [1] of 2 µM. Moreover, the “% Inhibition” value in the data set on human SMAD7 mRNA [2] (setting [4]) came to 69%.
In the case of “790736 (kT*k[5mC]*kA*dA*dA*d[5mC]*dT*dT*dT*dG*dA*dA*dG*k[5mC]*k[5mC]*kT; antisense) [compound 790736]”, the “% inhibition of SMAD7 mRNA expression” value with human SMAD7 mRNA [1] (setting [3]) turned out to be 32%; with human SMAD7 mRNA [1] (2220 nM, Study 2), 56%; with human SMAD7 mRNA [1] (6670.0 nM, Study 2), 68%; in the data set with human SMAD7 mRNA [1] (20000.0 nM, Study 2), 74%. This substance also showed an IC50 in the data set on human SMAD7 mRNA [1] of over 20 µM. The “% Inhibition” value in the data set with human SMAD7 mRNA [2] (setting [4]) is on record as 60%.
As for “798662 (kG*k[5mC]*kT*d[5mC]*d[5mC]*dG*dG*d[5mC]*dT*dG*d[5mC]*d[5mC]*d[5mC]*k[5mC]*kA*k[5mC]; antisense) [compound 798662]”, the “% inhibition of SMAD7 mRNA expression” value in the data set on human SMAD7 mRNA [1] (setting [3]) amounted to 0%; in the data set with human SMAD7 mRNA [1] (2220 nM, Study 2), 28%; in the data set on human SMAD7 mRNA [1] (6670.0 nM, Study 2) it was 22%; with human SMAD7 mRNA [1] (20000.0 nM, Study 2) it was 25%; with human SMAD7 mRNA [2] (setting [5]), 62%. Also, the IC50 in the data set on human SMAD7 mRNA [1] is over 20 µM.
Take “798686 (antisense kG*kA*kG*dG*dA*dG*dG*d[5mC]*dG*dA*dG*dG*dA*kG*kA*kA) [compound 798686]”: the “% inhibition of SMAD7 mRNA expression” value is on record as 0% in the data set on human SMAD7 mRNA [1] (setting [3]); 0% with human SMAD7 mRNA [1] (2220 nM, Study 2); 2% with human SMAD7 mRNA [1] (6670.0 nM, Study 2); 33% in the data set on human SMAD7 mRNA [1] (20000.0 nM, Study 2); 59% in the data set on human SMAD7 mRNA [2] (setting [5]). Also, the IC50 in the data set on human SMAD7 mRNA [1] was found to be 5 µM.
As to “798687 (antisense kG*kG*k[5mC]*dG*dA*dG*dG*dA*dG*dG*d[5mC]*dG*dA*kG*kG*kA) [compound 798687]”, the “% inhibition of SMAD7 mRNA expression” value in the data set on human SMAD7 mRNA [1] (setting [3]) is listed as 27%; in the data set with human SMAD7 mRNA [1] (2220 nM, Study 2), 42%; in the data set with human SMAD7 mRNA [1] (6670.0 nM, Study 2), 60%; in the data set on human SMAD7 mRNA [1] (20000.0 nM, Study 2) it was 61%; in the data set with human SMAD7 mRNA [2] (setting [5]), 64%. This substance gave an IC50 in the data set on human SMAD7 mRNA [1] of 7 µM.
With “798696 (antisense kT*k[5mC]*k[5mC]*d[5mC]*d[5mC]*d[5mC]*dT*dG*d[5mC]*dG*d[5mC]*d[5mC]*d[5mC]*kT*k[5mC]*k[5mC]) [compound 798696]”, the “% inhibition of SMAD7 mRNA expression” value in the data set on human SMAD7 mRNA [1] (setting [3]) stood at 0%; with human SMAD7 mRNA [1] (2220 nM, Study 2), 33%; with human SMAD7 mRNA [1] (6670.0 nM, Study 2), 58%; in the data set with human SMAD7 mRNA [1] (20000.0 nM, Study 2) it was 66%. In the data set on human SMAD7 mRNA [1], this substance showed an IC50 of under 0.7 µM. For the same substance, in the data set on human SMAD7 mRNA [2] (Hep3B cells, electroporation with 10,000 nM antisense oligonucleotide, SMAD7 mRNA by RT-PCR (RTS5062), relative to untreated control cells), the “% Inhibition” value was determined as 82%.
